Reference: patent publication US20060160863A1, “Polymorphic and amorphous forms of 2-{3-[(E)-2-(4,6-dimethyl-pyridin-2-yl)-vinyl]-1H-indazol-6-ylamino}-N-(4-hydroxy-but-2-ynyl)benzamide” (AGOURON PHARMACEUTICALS, INC., priority 2005, published 2006)
≈ marks a conversion by molar mass, not a printed value.

Assay: aqueous solubility in 0.1 M sodium phosphate buffer (pH 7.4)
Assay type: physicochemical
From the text: The present invention provides several polymorph crystalline forms and an amorphous form of the compound of Formula I. Each crystalline or amorphous form of the compound can be characterized by one or more of the following: X-ray powder diffraction pattern (i.e., X-ray diffraction peaks at various diffraction angles (2θ), melting point onset (and onset of dehydration for hydrated forms) as illustrated by endotherms of a Differential Scanning Calorimetry (DSC) thermogram, aqueous solubility, light stability under International Conference on Harmonization (ICH) high intensity light conditions, and physical and chemical storage stability.

Row | aqueous solubility | SMILES
1 | 1.3 µg/mL (≈ 2.88 µM) | Cc1cc(C)nc(/C=C/c2n[nH]c3cc(Nc4ccccc4C(=O)NCC#CCO)ccc23)c1 [Form II, 2-{3-[(E)-2-(4,6-dimethyl-pyridin-2-yl)-vinyl]-1H-indazol-6-ylamino}-N-(4-hydroxy-but-2-ynyl)-benzamide]
2 | 3.2 µg/mL (≈ 7.09 µM) | Cc1cc(C)nc(/C=C/c2n[nH]c3cc(Nc4ccccc4C(=O)NCC#CCO)ccc23)c1 [Form III, 2-{3-[(E)-2-(4,6-dimethyl-pyridin-2-yl)-vinyl]-1H-indazol-6-ylamino}-N-(4-hydroxy-but-2-ynyl)-benzamide]
3 | 1.3 µg/mL (≈ 2.88 µM) | Cc1cc(C)nc(/C=C/c2n[nH]c3cc(Nc4ccccc4C(=O)NCC#CCO)ccc23)c1 [Form IV, 2-{3-[(E)-2-(4,6-dimethyl-pyridin-2-yl)-vinyl]-1H-indazol-6-ylamino}-N-(4-hydroxy-but-2-ynyl)-benzamide]
4 | 0.8 µg/mL (≈ 1.77 µM) | Cc1cc(C)nc(/C=C/c2n[nH]c3cc(Nc4ccccc4C(=O)NCC#CCO)ccc23)c1 [Form Ia, 2-{3-[(E)-2-(4,6-dimethyl-pyridin-2-yl)-vinyl]-1H-indazol-6-ylamino}-N-(4-hydroxy-but-2-ynyl)-benzamide]
